The values that follow are results of earlier work, collected in US20230399457A1, “Bioactive Synthetic Copolymer, Bioactive Macromolecule and Related Methods Thereof” (Agency for Science, Technology and Research, priority 2020, published 2023).

The data set has as its system rats.

With “AGQWHRVSVRWGC [A5G81, laminin-derived peptide]”, the wound healing result is “facilitate wound healing in rats”.
